Test results from ChEMBL document CHEMBL3046607, “Synthesis and Herbicidal Activity of New 1-Alkyl-3-aryloxypyrazole-4-carboxamide Derivatives” (J Pestic Sci, 2004).
The source made the active and inactive calls. No cut-off for these calls is given here.

Columns and labels:
Lindernia procumbens [1] = assay: Post-emergence herbicidal activity against Lindernia procumbens assessed as bleaching of stem/leaf parts; type: functional, organism-based; note: test concentration or dose not given here
Ammannia multiflora [2] = assay: Post-emergence herbicidal activity against Ammannia multiflora assessed as bleaching of stem/leaf parts; type: functional, organism-based
[3] = system: Schoenoplectiella juncoides; assay: Post-emergence herbicidal activity against Schoenoplectiella juncoides assessed as bleaching of stem/leaf parts; type: functional, organism-based; note: test concentration or dose not given here
Ammannia multiflora [4] = assay: Pre-emergence herbicidal activity against Ammannia multiflora at 100 g a.i/ha measured after 14 days; type: functional, organism-based
Elatine triandra [5] = assay: Post-emergence herbicidal activity against Elatine triandra assessed as bleaching of stem/leaf parts; type: functional, organism-based; note: test concentration or dose not given here
[6] = system: Schoenoplectiella juncoides; assay: Pre-emergence herbicidal activity against Schoenoplectiella juncoides at 100 g a.i/ha measured after 14 days; type: functional, organism-based
Echinochloa oryzicola [7] = assay: Pre-emergence herbicidal activity against Echinochloa oryzicola at 100 g a.i/ha measured after 14 days; type: functional, organism-based
Ammannia multiflora [8] = assay: Pre-emergence herbicidal activity against Ammannia multiflora assessed as bleaching of stem/leaf parts; type: functional, organism-based
Pontederia vaginalis [9] = assay: Pre-emergence herbicidal activity against Monochoria vaginalis at 100 g a.i/ha measured after 14 days; type: functional, organism-based
Rotala indica [10] = assay: Post-emergence herbicidal activity against Rotala indica assessed as bleaching of stem/leaf parts; type: functional, organism-based
Cyperus difformis [11] = assay: Pre-emergence herbicidal activity against Cyperus difformis assessed as bleaching of stem/leaf parts; type: functional, organism-based
Pontederia vaginalis [12] = assay: Post-emergence herbicidal activity against Monochoria vaginalis assessed as bleaching of stem/leaf parts; type: functional, organism-based
Cyperus difformis [13] = assay: Pre-emergence herbicidal activity against Cyperus difformis at 100 g a.i/ha measured after 14 days; type: functional, organism-based
Cyperus difformis [14] = assay: Post-emergence herbicidal activity against Cyperus difformis assessed as bleaching of stem/leaf parts; type: functional, organism-based; note: test concentration or dose not given here
Rotala indica [15] = assay: Pre-emergence herbicidal activity against Rotala indica at 100 g a.i/ha measured after 14 days; type: functional, organism-based
Lindernia procumbens [16] = assay: Pre-emergence herbicidal activity against Lindernia procumbens assessed as bleaching of stem/leaf parts; type: functional, organism-based
[17] = system: Schoenoplectiella juncoides; assay: Pre-emergence herbicidal activity against Schoenoplectiella juncoides assessed as bleaching of stem/leaf parts; type: functional, organism-based
Echinochloa oryzicola [18] = assay: Post-emergence herbicidal activity against Echinochloa oryzicola assessed as bleaching of stem/leaf parts; type: functional, organism-based
Rotala indica [19] = assay: Pre-emergence herbicidal activity against Rotala indica assessed as bleaching of stem/leaf parts; type: functional, organism-based
Echinochloa oryzicola [20] = assay: Pre-emergence herbicidal activity against Echinochloa oryzicola assessed as bleaching of stem/leaf parts; type: functional, organism-based
Elatine triandra [21] = assay: Pre-emergence herbicidal activity against Elatine triandra assessed as bleaching of stem/leaf parts; type: functional, organism-based
Oryza sativa [22] = assay: Phytotoxicity against Oryza sativa cv. Koshihikari (rice) at 100 g a.i/ha measured after 14 days; type: organism-based; details: in vivo, 336 h
Elatine triandra [23] = assay: Pre-emergence herbicidal activity against Elatine triandra at 100 g a.i/ha measured after 14 days; type: functional, organism-based
Pontederia vaginalis [24] = assay: Pre-emergence herbicidal activity against Monochoria vaginalis assessed as bleaching of stem/leaf parts; type: functional, organism-based
Lindernia procumbens [25] = assay: Pre-emergence herbicidal activity against Lindernia procumbens at 100 g a.i/ha measured after 14 days; type: functional, organism-based
Elatine triandra [26] = assay: Pre-emergence herbicidal activity against Elatine triandra at 500 g a.i/ha measured after 14 days; type: functional, organism-based
[27] = system: Schoenoplectiella juncoides; assay: Pre-emergence herbicidal activity against Schoenoplectiella juncoides at 500 g a.i/ha measured after 14 days; type: functional, organism-based
Ammannia multiflora [28] = assay: Pre-emergence herbicidal activity against Ammannia multiflora at 500 g a.i/ha measured after 14 days; type: functional, organism-based
Lindernia procumbens [29] = assay: Pre-emergence herbicidal activity against Lindernia procumbens at 500 g a.i/ha measured after 14 days; type: functional, organism-based
Oryza sativa [30] = assay: Phytotoxicity against Oryza sativa cv. Koshihikari (rice) at 500 g a.i/ha measured after 14 days; type: organism-based; details: in vivo, 336 h
Cyperus difformis [31] = assay: Pre-emergence herbicidal activity against Cyperus difformis at 500 g a.i/ha measured after 14 days; type: functional, organism-based
Echinochloa oryzicola [32] = assay: Pre-emergence herbicidal activity against Echinochloa oryzicola at 500 g a.i/ha measured after 14 days; type: functional, organism-based
Rotala indica [33] = assay: Pre-emergence herbicidal activity against Rotala indica at 500 g a.i/ha measured after 14 days; type: functional, organism-based
Pontederia vaginalis [34] = assay: Pre-emergence herbicidal activity against Monochoria vaginalis at 500 g a.i/ha measured after 14 days; type: functional, organism-based

SMILES | Activity (Lindernia procumbens [1]) | Activity (Ammannia multiflora [2]) | Activity [3] | Activity (Ammannia multiflora [4]) | Activity (Elatine triandra [5]) | Activity [6] | Activity (Echinochloa oryzicola [7]) | Activity (Ammannia multiflora [8]) | Activity (Pontederia vaginalis [9]) | Activity (Rotala indica [10]) | Activity (Cyperus difformis [11]) | Activity (Pontederia vaginalis [12]) | Activity (Cyperus difformis [14]) | Activity (Lindernia procumbens [16]) | Activity [17] | Activity (Echinochloa oryzicola [18]) | Activity (Rotala indica [19]) | Activity (Echinochloa oryzicola [20]) | Activity (Elatine triandra [21]) | Activity (Pontederia vaginalis [24]) | also measured
Cn1cc(C(=O)Nc2cccc(S(C)(=O)=O)c2)c(Oc2cccc(C(F)(F)F)c2)n1 | Active | Active | Active | inactive | Active | inactive | inactive | Active | inactive | Active | Active | Active | Active | Active | Active | Active | Active | Active | Active | Active | Activity (Cyperus difformis [13]): inactive; Activity (Rotala indica [15]): inactive; Activity (Oryza sativa [22]): Non-toxic; Activity (Elatine triandra [23]): inactive; Activity (Lindernia procumbens [25]): inactive
Cn1cc(C(=O)Nc2ccccc2)c(OCc2cccc(C(F)(F)F)c2)n1 | Active | Active | Active | Active | Active | inactive | Active | Active | inactive | Active | Active | Active | Active | Active | Active | Active | Active | Active | Active | Active | Activity (Cyperus difformis [13]): inactive; Activity (Rotala indica [15]): Active; Activity (Oryza sativa [22]): Non-toxic; Activity (Elatine triandra [23]): Active; Activity (Lindernia procumbens [25]): Active
CCCONC(=O)c1cn(C)nc1Oc1cccc(C(F)(F)F)c1 | Active | Active | Active | Active | Active | Active | Active | Active | Active | Active | Active | Active | Active | Active | Active | Active | Active | Active | Active | Active | Activity (Elatine triandra [26]): Active; Activity [27]: Active; Activity (Ammannia multiflora [28]): Active; Activity (Lindernia procumbens [29]): Active; Activity (Oryza sativa [30]): Toxic; Activity (Rotala indica [15]): Active; Activity (Oryza sativa [22]): Non-toxic; Activity (Cyperus difformis [31]): Active; Activity (Echinochloa oryzicola [32]): Active; Activity (Rotala indica [33]): Active; Activity (Elatine triandra [23]): Active; Activity (Lindernia procumbens [25]): Active; Activity (Pontederia vaginalis [34]): Active
Cn1cc(NC(=O)c2ccc(F)cc2F)c(OCc2cccc(C(F)(F)F)c2)n1 | Active | Active | Active |  | Active |  |  | Active |  | Active | Active | Active | Active | Active | Active | Active | Active | Active | Active | Active | Activity (Elatine triandra [26]): Active; Activity [27]: Active; Activity (Ammannia multiflora [28]): Active; Activity (Lindernia procumbens [29]): Active; Activity (Oryza sativa [30]): Non-toxic; Activity (Cyperus difformis [31]): Active; Activity (Echinochloa oryzicola [32]): Active; Activity (Rotala indica [33]): Active; Activity (Pontederia vaginalis [34]): Active
COc1ccc(NC(=O)c2cn(C)nc2Oc2cccc(C(F)(F)F)c2)cc1OC | Active | Active | Active | inactive | Active | inactive | inactive | Active | inactive | Active | Active | Active | Active | Active | Active | Active | Active | Active | Active | Active | Activity (Cyperus difformis [13]): inactive; Activity (Rotala indica [15]): inactive; Activity (Oryza sativa [22]): Non-toxic; Activity (Elatine triandra [23]): inactive; Activity (Lindernia procumbens [25]): inactive
